US11053218B2, “3-(1-oxoisoindolin-2-yl)piperidine-2,6-dione derivatives and uses thereof” (Novartis AG, priority 2017, dated 2021)
Where a name gives a salt, the structure may show the parent alone.

Assays:
Type in all cases: cell-based
GSPT1 = GSPT1 (Homo sapiens, UniProt P15170+Q96SW2); test: Prolabel quantification of GSPT1 protein levels in 293GT cells; settings: Prolabel assay, read-out: GSPT1 EC50
Description: The Prolabel system from DiscoverX was used to develop high-throughput and quantitative assays to measure changes in IKZF1, IKZF2 and GSPT1 protein levels in response to compounds. The prolabel tag was derived from the alpha fragment of beta galactosidase and has the following protein sequence: mssnslavvlqrrdwenpgvtqlnrlaahppfaswrnseeartdrpsqqlrslnge. The complementary fragment of beta-galactosidase (from DiscoverX), is added to the prolabel tag to form an active beta galactosidase enzyme whose activity can be precisely measured. In this way, the levels of a fusion protein with the prolabel tag can be quantified in cell lysates.
Lentiviral vectors, based on the Invitrogen pLenti6.2/V5 DEST backbone, were constructed that placed the prolabel tag upstream of IKZF1, IKZF2 or GSPT1 and expressed the fusion protein from a CMV promoter.
To ensure moderate and consistent expression of the prolabel fusion proteins across all cells in the population, stable cell lines were constructed from cells expressing a single copy of the construct. Lentivirus packaged with the constructs was made using the Virapower kit from Invitrogen.
The levels of prolabel tagged fusion proteins in compound treated cell lines were measured as follows:
Day 1, Cells were diluted to 1.0×10^6 cells/ml in normal growth medium. 17.5 μL of cells were plated in each well of a solid white 384 well plate. Plates were incubated overnight in a 37° C. tissue culture incubator.
Day 2, Serial dilutions of compounds were made in 384 well plates from 10 mM stocks. 15 μL of DMSO was added to each well of a 384 well plate. In the first column 15 μL of stock compound was added. The solution was mixed and 15 μL was transferred to the next column. This was repeated until 20 two-fold dilutions were prepared. 2.5 μL of diluted compounds were transferred into 60 μL of cell culture medium in another 384 well plate, and mixed well. 2.5 μL of this mixture was added to the plated cells. The final DMSO concentration was 0.5% and the highest concentration of compound was 50 μM. Plates were incubated overnight (e.g., about 14 h, 18 h, or 24 h) in a 37° C. tissue culture incubator.
Day 3, Plates were removed from the incubator and allowed to equilibrate at rt for 30 minutes. Prolabel substrate (DiscoverX PathHunter Prolabel Detection Kit, User manual: 93-0180) was added as described by the manufacturers protocols. Plates were incubated at rt for three hours and luminescence was read using an Envision reader (Perkin Elmer) Data was analyzed and visualized using the Spotfire software package.

IKZF1 = IKZF1 (Homo sapiens, UniProt Q13422+Q96SW2); test: Prolabel quantification of IKZF1 protein levels in 293GT cells; settings: Prolabel assay, read-out: IKZF1 EC50
IKZF2 = IKZF2 (Homo sapiens, UniProt Q96SW2+Q9UKS7); test: Prolabel quantification of IKZF2 protein levels in 293GT cells; settings: for inhibition at 10 µM: 24 h, read-out: IKZF2 % protein reduction at 10 μM, 24 h; for inhibition at 10 µM / DC50: 293GT cells; for DC50: Prolabel assay, read-out: IKZF2 EC50
Chain of IKZF2 (Q9UKS7 whole entry): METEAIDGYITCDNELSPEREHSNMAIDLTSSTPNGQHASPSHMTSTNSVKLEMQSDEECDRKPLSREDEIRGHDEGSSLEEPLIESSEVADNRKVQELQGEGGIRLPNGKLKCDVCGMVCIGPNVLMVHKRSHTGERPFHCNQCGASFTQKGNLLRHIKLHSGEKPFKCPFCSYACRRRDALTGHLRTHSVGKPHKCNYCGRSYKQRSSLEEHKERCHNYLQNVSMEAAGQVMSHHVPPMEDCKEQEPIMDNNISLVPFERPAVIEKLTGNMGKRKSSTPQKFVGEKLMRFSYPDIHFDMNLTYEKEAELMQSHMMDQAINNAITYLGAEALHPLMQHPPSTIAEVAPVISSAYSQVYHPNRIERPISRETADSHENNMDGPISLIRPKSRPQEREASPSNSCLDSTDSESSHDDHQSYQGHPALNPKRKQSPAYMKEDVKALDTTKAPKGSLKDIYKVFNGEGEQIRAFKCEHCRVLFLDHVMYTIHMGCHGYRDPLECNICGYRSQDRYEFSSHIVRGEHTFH
Chain of IKZF2 (Q96SW2 whole entry): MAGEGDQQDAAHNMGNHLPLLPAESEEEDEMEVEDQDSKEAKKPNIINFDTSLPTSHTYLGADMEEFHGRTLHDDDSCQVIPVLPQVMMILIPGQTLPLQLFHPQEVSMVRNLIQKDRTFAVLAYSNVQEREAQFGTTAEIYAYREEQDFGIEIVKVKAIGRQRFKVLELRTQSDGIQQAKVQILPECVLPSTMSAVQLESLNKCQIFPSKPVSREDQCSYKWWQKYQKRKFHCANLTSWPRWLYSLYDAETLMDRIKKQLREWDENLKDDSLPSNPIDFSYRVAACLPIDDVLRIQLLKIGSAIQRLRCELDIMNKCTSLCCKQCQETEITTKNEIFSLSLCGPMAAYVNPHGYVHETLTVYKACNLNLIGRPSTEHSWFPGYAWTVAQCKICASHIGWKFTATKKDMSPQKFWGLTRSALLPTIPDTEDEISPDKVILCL
Chain of IKZF2 (Q16531 whole entry partner): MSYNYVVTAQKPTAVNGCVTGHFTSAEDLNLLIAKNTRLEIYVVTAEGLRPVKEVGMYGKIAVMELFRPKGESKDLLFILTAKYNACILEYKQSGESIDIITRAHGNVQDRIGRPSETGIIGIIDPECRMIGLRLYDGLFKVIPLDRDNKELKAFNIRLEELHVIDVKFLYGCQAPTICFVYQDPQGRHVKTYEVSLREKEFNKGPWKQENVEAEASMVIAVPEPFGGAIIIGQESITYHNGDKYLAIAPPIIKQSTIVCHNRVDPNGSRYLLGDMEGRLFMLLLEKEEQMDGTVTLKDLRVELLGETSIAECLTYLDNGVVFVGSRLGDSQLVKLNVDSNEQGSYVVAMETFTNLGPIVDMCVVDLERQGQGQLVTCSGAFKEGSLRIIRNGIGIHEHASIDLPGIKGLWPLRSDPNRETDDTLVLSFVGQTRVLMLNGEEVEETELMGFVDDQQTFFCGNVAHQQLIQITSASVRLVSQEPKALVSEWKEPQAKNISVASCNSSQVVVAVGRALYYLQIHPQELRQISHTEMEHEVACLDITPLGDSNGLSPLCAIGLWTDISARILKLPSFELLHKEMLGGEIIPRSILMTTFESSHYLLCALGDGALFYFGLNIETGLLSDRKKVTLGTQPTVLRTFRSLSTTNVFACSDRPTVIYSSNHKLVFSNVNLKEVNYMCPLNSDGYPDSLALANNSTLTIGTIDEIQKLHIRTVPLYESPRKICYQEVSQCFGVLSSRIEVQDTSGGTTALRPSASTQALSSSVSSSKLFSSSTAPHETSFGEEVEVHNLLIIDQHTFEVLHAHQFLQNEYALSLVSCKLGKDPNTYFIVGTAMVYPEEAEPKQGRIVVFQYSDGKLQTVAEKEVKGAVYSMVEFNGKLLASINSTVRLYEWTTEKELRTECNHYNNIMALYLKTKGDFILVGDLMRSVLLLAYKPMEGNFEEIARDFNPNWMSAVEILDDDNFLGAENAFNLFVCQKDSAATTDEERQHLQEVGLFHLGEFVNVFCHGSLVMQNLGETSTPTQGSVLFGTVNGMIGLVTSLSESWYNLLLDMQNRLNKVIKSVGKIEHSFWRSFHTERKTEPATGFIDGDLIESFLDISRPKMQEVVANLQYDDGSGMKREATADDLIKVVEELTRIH

Chain of IKZF1 (Q13422 whole entry): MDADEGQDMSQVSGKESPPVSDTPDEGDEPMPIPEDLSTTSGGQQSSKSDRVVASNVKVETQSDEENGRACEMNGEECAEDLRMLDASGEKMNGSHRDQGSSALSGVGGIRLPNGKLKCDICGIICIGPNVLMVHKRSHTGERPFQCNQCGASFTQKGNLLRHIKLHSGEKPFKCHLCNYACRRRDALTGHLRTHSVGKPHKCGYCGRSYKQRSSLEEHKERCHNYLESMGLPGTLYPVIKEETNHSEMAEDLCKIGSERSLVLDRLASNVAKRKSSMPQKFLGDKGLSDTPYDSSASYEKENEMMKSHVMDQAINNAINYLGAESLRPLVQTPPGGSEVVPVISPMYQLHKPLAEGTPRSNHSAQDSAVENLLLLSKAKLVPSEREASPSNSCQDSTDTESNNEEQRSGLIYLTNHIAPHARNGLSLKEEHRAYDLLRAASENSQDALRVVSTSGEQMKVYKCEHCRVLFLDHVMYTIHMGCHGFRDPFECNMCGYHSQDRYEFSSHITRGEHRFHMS
Chain of IKZF1 (Q96SW2 whole entry): as the sequence (Q96SW2 whole entry) above
Chain of IKZF1 (Q16531 whole entry partner): as the sequence (Q16531 whole entry partner) above
Chain of GSPT1 (P15170 whole entry, the tested form may be a part): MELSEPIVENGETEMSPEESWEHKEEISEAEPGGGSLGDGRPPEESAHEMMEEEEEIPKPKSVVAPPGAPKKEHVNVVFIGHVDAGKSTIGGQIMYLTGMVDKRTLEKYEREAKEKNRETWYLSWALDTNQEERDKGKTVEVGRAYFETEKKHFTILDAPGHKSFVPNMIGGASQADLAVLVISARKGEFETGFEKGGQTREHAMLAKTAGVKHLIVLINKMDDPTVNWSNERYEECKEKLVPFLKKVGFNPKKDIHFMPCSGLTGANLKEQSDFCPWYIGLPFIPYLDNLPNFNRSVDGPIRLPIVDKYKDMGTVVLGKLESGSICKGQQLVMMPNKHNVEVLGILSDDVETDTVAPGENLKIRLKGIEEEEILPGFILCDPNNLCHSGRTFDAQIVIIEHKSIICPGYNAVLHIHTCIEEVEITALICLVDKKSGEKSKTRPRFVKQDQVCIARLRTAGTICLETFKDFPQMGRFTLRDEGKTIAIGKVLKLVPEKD
Chain of GSPT1 (Q96SW2 whole entry, the tested form may be a part): as the sequence (Q96SW2 whole entry) above
Chain of GSPT1 (Q16531 whole entry partner, the tested form may be a part): as the sequence (Q16531 whole entry partner) above

DC50 (GSPT1) | DC50 (IKZF1) | inhibition at 10 µM (IKZF2) | DC50 (IKZF2) | IKZF2 protein levels as compared to the control (DMSO) (IKZF2; Prolabel assay in HEK293GT cells, bar graph) | Structure (SMILES)
– | > 30 µM | 0% | > 30 µM | – | O=C1CCC(N2Cc3cc(C4=CCCNC4)ccc3C2=O)C(=O)N1 (centres unmarked) [Compound I-282, 3-(1-oxo-5-(1,2,5,6-tetrahydropyridin-3-yl)isoindolin-2-yl)piperidine-2,6-dione]
– | > 30 µM | 70% | 0.012 µM | – | CC(C)Oc1ccc(CN2CCC(c3ccc4c(c3)CN(C3CCC(=O)NC3=O)C4=O)CC2)cn1 (centres unmarked) [Compound I-285, 3-(5-(1-((6-isopropoxypyridin-3-yl)methyl)piperidin-4-yl)-1-oxoisoindolin-2-yl)piperidine-2,6-dione]
– | > 30 µM | 40% | 0.72 µM | – | O=C1CCC(N2Cc3cc(C4CCN(Cc5ccnn5-c5ccccc5)CC4)ccc3C2=O)C(=O)N1 (centres unmarked) [Compound I-286, 3-(1-oxo-5-(1-((1-phenyl-1H-pyrazol-5-yl)methyl)piperidin-4-yl)isoindolin-2-yl)piperidine-2,6-dione]
– | > 30 µM | 70% | 0.018 µM | – | CCOc1ccc(CN2CCC(c3ccc4c(c3)CN(C3CCC(=O)NC3=O)C4=O)CC2)cc1 (centres unmarked) [Compound I-287, 3-(5-(1-(4-ethoxybenzyl)piperidin-4-yl)-1-oxoisoindolin-2-yl)piperidine-2,6-dione]
– | > 30 µM | 80% | 0.012 µM | – | O=C1CCC(N2Cc3cc(C4CCN(Cc5cnn(-c6ccccc6)c5)CC4)ccc3C2=O)C(=O)N1 (centres unmarked) [Compound I-288, 3-(1-oxo-5-(1-((1-phenyl-1H-pyrazol-4-yl)methyl)piperidin-4-yl)isoindolin-2-yl)piperidine-2,6-dione]
– | > 30 µM | 60% | 0.076 µM | – | CC(C)n1nccc1CN1CCC(c2ccc3c(c2)CN(C2CCC(=O)NC2=O)C3=O)CC1 (centres unmarked) [Compound I-289, 3-(5-(1-((1-isopropyl-1H-pyrazol-5-yl)methyl)piperidin-4-yl)-1-oxoisoindolin-2-yl)piperidine-2,6-dione]
– | > 30 µM | 60% | 0.49 µM | – | O=C1CCC(N2Cc3cc(C4CCN(Cc5ccns5)CC4)ccc3C2=O)C(=O)N1 (centres unmarked) [Compound I-290, 3-(5-(1-(isothiazol-5-ylmethyl)piperidin-4-yl)-1-oxoisoindolin-2-yl)piperidine-2,6-dione]
– | 0.32 µM | 60% | 0.14 µM | – | CC(C)Oc1cccc(CN2CCC(c3ccc4c(c3)CN(C3CCC(=O)NC3=O)C4=O)CC2)n1 (centres unmarked) [Compound I-301, 3-(5-(1-((6-isopropoxypyridin-2-yl)methyl)piperidin-4-yl)-1-oxoisoindolin-2-yl)piperidine-2,6-dione]

More lines, now with the values behind:

Structure (SMILES) | DC50 (GSPT1) | DC50 (IKZF1) | inhibition at 10 µM (IKZF2) | DC50 (IKZF2) | IKZF2 protein levels as compared to the control (DMSO) (IKZF2; Prolabel assay in HEK293GT cells, bar graph)
CC(c1ccccc1)N1CCC(c2ccc3c(c2)CN(C2CCC(=O)NC2=O)C3=O)CC1 (racemic) [Compound I-62, 3-(1-oxo-5-(1-(1-phenylethyl)piperidin-4-yl)isoindolin-2-yl)piperidine-2,6-dione] | > 30 µM | > 50 µM | 75% | 0.007 µM | –
Nc1nc(C(F)(F)F)c(CN2CCC(c3ccc4c(c3)CN(C3CCC(=O)NC3=O)C4=O)CC2)s1 (centres unmarked) [Compound I-234, 3-(5-(1-((2-amino-4-(trifluoromethyl)thiazol-5-yl)methyl)piperidin-4-yl)-1-oxoisoindolin-2-yl)piperidine-2,6-dione] | – | > 30 µM | 50% | 0.12 µM | –
NC(=O)c1nc(CN2CCC(c3ccc4c(c3)CN(C3CCC(=O)NC3=O)C4=O)CC2)no1 (centres unmarked) [Compound I-235, 3-((4-(2-(2,6-dioxopiperidin-3-yl)-1-oxoisoindolin-5-yl)piperidin-1-yl)methyl)-1,2,4-oxadiazole-5-carboxamide] | – | > 30 µM | 40% | 2.44 µM | –
O=C1CCC(N2Cc3cc(C4CCN(Cc5cccc(S(=O)(=O)N6CCOCC6)c5)CC4)ccc3C2=O)C(=O)N1 (centres unmarked) [Compound I-236, 3-(5-(1-(3-(morpholinosulfonyl)benzyl)piperidin-4-yl)-1-oxoisoindolin-2-yl)piperidine-2,6-dione] | – | > 25 µM | 80% | 0.003 µM | decreased
O=C1CCC(N2Cc3cc(C4CCN(Cc5cscn5)CC4)ccc3C2=O)C(=O)N1 (centres unmarked) [Compound I-238, 3-(1-oxo-5-(1-(thiazol-4-ylmethyl)piperidin-4-yl)isoindolin-2-yl)piperidine-2,6-dione] | – | > 25 µM | 60% | 0.11 µM | –
CC(C)(C)c1ccc(C(=O)N2CCC(c3ccc4c(c3)CN(C3CCC(=O)NC3=O)C4=O)CC2)cc1 (centres unmarked) [Compound I-242, 3-(5-(1-(4-(tert-butyl)benzoyl)piperidin-4-yl)-1-oxoisoindolin-2-yl)piperidine-2,6-dione] | – | > 30 µM | 5% | > 30 µM | –
O=C1CCC(N2Cc3cc(C4CCN(Cc5ccc(OCc6ccc(F)cc6)cc5)CC4)ccc3C2=O)C(=O)N1 (centres unmarked) [Compound I-244, 3-(5-(1-(4-((4-fluorobenzyl)oxy)benzyl)piperidin-4-yl)-1-oxoisoindolin-2-yl)piperidine-2,6-dione] | – | > 30 µM | 75% | 0.091 µM | –
Cc1cc(CN2CCC(c3ccc4c(c3)CN(C3CCC(=O)NC3=O)C4=O)CC2)on1 (centres unmarked) [Compound I-245, 3-(5-(1-((3-methylisoxazol-5-yl)methyl)piperidin-4-yl)-1-oxoisoindolin-2-yl)piperidine-2,6-dione] | – | > 50 µM | 40% | 0.037 µM | –
O=C1CCC(N2Cc3cc(C4CCN(Cc5ccon5)CC4)ccc3C2=O)C(=O)N1 (centres unmarked) [Compound I-246, 3-(5-(1-(isoxazol-3-ylmethyl)piperidin-4-yl)-1-oxoisoindolin-2-yl)piperidine-2,6-dione] | – | > 50 µM | 40% | 0.012 µM | –
COCc1ccc(CN2CCC(c3ccc4c(c3)CN(C3CCC(=O)NC3=O)C4=O)CC2)cc1 (centres unmarked) [Compound I-248, 3-(5-(1-(4-(methoxymethyl)benzyl)piperidin-4-yl)-1-oxoisoindolin-2-yl)piperidine-2,6-dione] | – | > 30 µM | 70% | 0.016 µM | –
O=C1CCC(N2Cc3cc(C4CCN(Cc5ccc(S(=O)(=O)C(F)F)cc5)CC4)ccc3C2=O)C(=O)N1 (centres unmarked) [Compound I-252, 3-(5-(1-(4-((difluoromethyl)sulfonyl)benzyl)piperidin-4-yl)-1-oxoisoindolin-2-yl)piperidine-2,6-dione] | – | > 30 µM | 75% | 0.03 µM | –
COC(=O)c1coc(CN2CCC(c3ccc4c(c3)CN(C3CCC(=O)NC3=O)C4=O)CC2)n1 (centres unmarked) [Compound I-254, methyl 2-((4-(2-(2,6-dioxopiperidin-3-yl)-1-oxoisoindolin-5-yl)piperidin-1-yl)methyl)oxazole-4-carboxylate] | – | > 30 µM | 40% | 0.68 µM | –
O=C1CCC(N2Cc3cc(C4CCN(Cc5ccc(OCc6ccccn6)cc5)CC4)ccc3C2=O)C(=O)N1 (centres unmarked) [Compound I-255, 3-(1-oxo-5-(1-(4-(pyridin-2-ylmethoxy)benzyl)piperidin-4-yl)isoindolin-2-yl)piperidine-2,6-dione] | – | > 30 µM | 60% | 0.049 µM | –
O=C1CCC(N2Cc3cc(C4CCN(Cc5ccc6[nH]c(=O)[nH]c6c5)CC4)ccc3C2=O)C(=O)N1 (centres unmarked) [Compound I-259, 3-(1-oxo-5-(1-((2-oxo-2,3-dihydro-1H-benzo[d]imidazol-5-yl)methyl)piperidin-4-yl)isoindolin-2-yl)piperidine-2,6-dione] | – | > 30 µM | 60% | 1.3 µM | –
O=C1CCC(N2Cc3cc(C4CCN(Cc5ccccc5)C4)ccc3C2=O)C(=O)N1 (centres unmarked) [Compound I-260, 3-(5-(1-benzylpyrrolidin-3-yl)-1-oxoisoindolin-2-yl)piperidine-2,6-dione HC(O)OH Salt] | – | > 30 µM | 20% | > 30 µM | –
O=C1CCC(N2Cc3cc(C4C[C@H]5CC[C@@H](C4)N5Cc4ccccc4)ccc3C2=O)C(=O)N1 (some centres unmarked) [Compound I-265, 3-(5-(8-benzyl-8-azabicyclo[3.2.1]octan-3-yl)-1-oxoisoindolin-2-yl)piperidine-2,6-dione HC(O)OH salt] | – | > 50 µM | 70% | 0.005 µM | –
